One experiment concerns the target human SMG1 enzyme (Homo sapiens, UniProt Q96Q15). Description: Measurement of SMG1 kinase activity (ADP-Glo Kinase Assay). It counts as biochemical. As to conditions: purified human SMG1 enzyme 5 nM, Upf1 peptide substrate, ATP 4 μM; qAC50 synonymous with IC50; read-out: Test Example 1 ADP-Glo IC50. A digest of the protocol: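 Purified human SMG1 (5 nM) preincubated with compound (1% DMSO) 15 min at room temperature in HEPES pH 7.5 buffer with MnCl2, then reacted 60 min with Upf1 peptide (8 μg/mL) and 4 μM ATP. ADP formed measured by ADP-Glo luminescence; IC50 by 4-parameter logistic fit, normalised to DMSO (0%) and enzyme-free (−100%) wells.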

Experiment [1] relates to Snhg1 transcript (NMD target gene) in EMT6 murine breast cancer cell line. Briefly: Measurement of NMD inhibitory activity in cells (increase in Snhg1 transcript, real-time PCR). As to conditions: Mus musculus, 6 hours treatment, concentration giving 1/2 of maximum Snhg1 fold change of positive control, read-out: Test Example 2 Cell-based Snhg1 EC50. Further details: species or system mouse. A digest of the protocol:
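EMT6 cells treated with serially diluted compound (2% DMSO final) for 6 h; Snhg1 transcript quantified by real-time PCR (ΔΔCT, Tbp endogenous control, untreated wells set to 1). EC50 taken as concentration giving half the maximum fold change of a known NMD inhibitor positive control.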

In experiment [2] the test system is Snhg1 transcript in tumor tissues of mice subcutaneously implanted with EMT6 murine breast cancer cell line. Briefly: Evaluation of NMD inhibitory activity in vivo (Snhg1 transcript in EMT6 tumor tissue after oral administration). The conditions noted are these: 6 hours after administration, BALB/c mice. Here is the method: The NMD inhibitory activity of a compound of the present invention or a pharmaceutically acceptable salt thereof in vivo can be measured, for example, by the method described below. Using mice subcutaneously implanted with EMT6 murine breast cancer cell line, tumor tissues 6 hours after oral administration of a test substance are excised, and the increase in Snhg1 transcript is quantified as an indicator of NMD inhibition in the tumor, in the same manner as in the in vitro method.
In this test, NMD inhibitory activity in tumor tissues was evaluated when a test substance was orally administered to mice subcutaneously implanted with EMT6 murine breast cancer cell line. As an indicator of NMD inhibitory activity, the increase in the transcript of Snhg1, an NMD target gene, was quantified. First, BALB/c mice were subcutaneously implanted with EMT6 cells (ATCC), and engraftment was confirmed 7 days later. Six hours after administration of the test substance, mice were euthanized, and the collected tumor tissues were cryopreserved. RNA was extracted from the tumor tissues using the illustra RNAspin Mini RNA Isolation kit (GE Healthcare Life Sciences). After synthesizing cDNA using the High-Capacity cDNA Reverse Transcription Kits (Applied Biosystems, 4368813), the cDNA was mixed with PrimeTime Gene Expression Master Mix (Integrated DNA Technologies) and various probes, and gene expression was quantified by QuantStudio 6 Flex (Thermo Fisher Scientific Inc.). For the probe for the Snhg1 gene, which is an NMD target, Mm.PT.58.44039547 (FAM) (Integrated DNA Technologies) was used, and for the probe for the Gapdh gene, which is an endogenous control, Mm99999915_g2 (VIC-PL) (Applied Biosystems) was used. The relative quantification of Snhg1 transcripts in each sample was calculated by the ΔΔCT method using Gapdh as an endogenous control, and the expression level of Snhg1 in each test substance administration group was calculated by setting the expression level of the Vehicle group (0.5% methylcellulose administration group) to 1.

Chain of human SMG1 enzyme (Q96Q15 whole entry): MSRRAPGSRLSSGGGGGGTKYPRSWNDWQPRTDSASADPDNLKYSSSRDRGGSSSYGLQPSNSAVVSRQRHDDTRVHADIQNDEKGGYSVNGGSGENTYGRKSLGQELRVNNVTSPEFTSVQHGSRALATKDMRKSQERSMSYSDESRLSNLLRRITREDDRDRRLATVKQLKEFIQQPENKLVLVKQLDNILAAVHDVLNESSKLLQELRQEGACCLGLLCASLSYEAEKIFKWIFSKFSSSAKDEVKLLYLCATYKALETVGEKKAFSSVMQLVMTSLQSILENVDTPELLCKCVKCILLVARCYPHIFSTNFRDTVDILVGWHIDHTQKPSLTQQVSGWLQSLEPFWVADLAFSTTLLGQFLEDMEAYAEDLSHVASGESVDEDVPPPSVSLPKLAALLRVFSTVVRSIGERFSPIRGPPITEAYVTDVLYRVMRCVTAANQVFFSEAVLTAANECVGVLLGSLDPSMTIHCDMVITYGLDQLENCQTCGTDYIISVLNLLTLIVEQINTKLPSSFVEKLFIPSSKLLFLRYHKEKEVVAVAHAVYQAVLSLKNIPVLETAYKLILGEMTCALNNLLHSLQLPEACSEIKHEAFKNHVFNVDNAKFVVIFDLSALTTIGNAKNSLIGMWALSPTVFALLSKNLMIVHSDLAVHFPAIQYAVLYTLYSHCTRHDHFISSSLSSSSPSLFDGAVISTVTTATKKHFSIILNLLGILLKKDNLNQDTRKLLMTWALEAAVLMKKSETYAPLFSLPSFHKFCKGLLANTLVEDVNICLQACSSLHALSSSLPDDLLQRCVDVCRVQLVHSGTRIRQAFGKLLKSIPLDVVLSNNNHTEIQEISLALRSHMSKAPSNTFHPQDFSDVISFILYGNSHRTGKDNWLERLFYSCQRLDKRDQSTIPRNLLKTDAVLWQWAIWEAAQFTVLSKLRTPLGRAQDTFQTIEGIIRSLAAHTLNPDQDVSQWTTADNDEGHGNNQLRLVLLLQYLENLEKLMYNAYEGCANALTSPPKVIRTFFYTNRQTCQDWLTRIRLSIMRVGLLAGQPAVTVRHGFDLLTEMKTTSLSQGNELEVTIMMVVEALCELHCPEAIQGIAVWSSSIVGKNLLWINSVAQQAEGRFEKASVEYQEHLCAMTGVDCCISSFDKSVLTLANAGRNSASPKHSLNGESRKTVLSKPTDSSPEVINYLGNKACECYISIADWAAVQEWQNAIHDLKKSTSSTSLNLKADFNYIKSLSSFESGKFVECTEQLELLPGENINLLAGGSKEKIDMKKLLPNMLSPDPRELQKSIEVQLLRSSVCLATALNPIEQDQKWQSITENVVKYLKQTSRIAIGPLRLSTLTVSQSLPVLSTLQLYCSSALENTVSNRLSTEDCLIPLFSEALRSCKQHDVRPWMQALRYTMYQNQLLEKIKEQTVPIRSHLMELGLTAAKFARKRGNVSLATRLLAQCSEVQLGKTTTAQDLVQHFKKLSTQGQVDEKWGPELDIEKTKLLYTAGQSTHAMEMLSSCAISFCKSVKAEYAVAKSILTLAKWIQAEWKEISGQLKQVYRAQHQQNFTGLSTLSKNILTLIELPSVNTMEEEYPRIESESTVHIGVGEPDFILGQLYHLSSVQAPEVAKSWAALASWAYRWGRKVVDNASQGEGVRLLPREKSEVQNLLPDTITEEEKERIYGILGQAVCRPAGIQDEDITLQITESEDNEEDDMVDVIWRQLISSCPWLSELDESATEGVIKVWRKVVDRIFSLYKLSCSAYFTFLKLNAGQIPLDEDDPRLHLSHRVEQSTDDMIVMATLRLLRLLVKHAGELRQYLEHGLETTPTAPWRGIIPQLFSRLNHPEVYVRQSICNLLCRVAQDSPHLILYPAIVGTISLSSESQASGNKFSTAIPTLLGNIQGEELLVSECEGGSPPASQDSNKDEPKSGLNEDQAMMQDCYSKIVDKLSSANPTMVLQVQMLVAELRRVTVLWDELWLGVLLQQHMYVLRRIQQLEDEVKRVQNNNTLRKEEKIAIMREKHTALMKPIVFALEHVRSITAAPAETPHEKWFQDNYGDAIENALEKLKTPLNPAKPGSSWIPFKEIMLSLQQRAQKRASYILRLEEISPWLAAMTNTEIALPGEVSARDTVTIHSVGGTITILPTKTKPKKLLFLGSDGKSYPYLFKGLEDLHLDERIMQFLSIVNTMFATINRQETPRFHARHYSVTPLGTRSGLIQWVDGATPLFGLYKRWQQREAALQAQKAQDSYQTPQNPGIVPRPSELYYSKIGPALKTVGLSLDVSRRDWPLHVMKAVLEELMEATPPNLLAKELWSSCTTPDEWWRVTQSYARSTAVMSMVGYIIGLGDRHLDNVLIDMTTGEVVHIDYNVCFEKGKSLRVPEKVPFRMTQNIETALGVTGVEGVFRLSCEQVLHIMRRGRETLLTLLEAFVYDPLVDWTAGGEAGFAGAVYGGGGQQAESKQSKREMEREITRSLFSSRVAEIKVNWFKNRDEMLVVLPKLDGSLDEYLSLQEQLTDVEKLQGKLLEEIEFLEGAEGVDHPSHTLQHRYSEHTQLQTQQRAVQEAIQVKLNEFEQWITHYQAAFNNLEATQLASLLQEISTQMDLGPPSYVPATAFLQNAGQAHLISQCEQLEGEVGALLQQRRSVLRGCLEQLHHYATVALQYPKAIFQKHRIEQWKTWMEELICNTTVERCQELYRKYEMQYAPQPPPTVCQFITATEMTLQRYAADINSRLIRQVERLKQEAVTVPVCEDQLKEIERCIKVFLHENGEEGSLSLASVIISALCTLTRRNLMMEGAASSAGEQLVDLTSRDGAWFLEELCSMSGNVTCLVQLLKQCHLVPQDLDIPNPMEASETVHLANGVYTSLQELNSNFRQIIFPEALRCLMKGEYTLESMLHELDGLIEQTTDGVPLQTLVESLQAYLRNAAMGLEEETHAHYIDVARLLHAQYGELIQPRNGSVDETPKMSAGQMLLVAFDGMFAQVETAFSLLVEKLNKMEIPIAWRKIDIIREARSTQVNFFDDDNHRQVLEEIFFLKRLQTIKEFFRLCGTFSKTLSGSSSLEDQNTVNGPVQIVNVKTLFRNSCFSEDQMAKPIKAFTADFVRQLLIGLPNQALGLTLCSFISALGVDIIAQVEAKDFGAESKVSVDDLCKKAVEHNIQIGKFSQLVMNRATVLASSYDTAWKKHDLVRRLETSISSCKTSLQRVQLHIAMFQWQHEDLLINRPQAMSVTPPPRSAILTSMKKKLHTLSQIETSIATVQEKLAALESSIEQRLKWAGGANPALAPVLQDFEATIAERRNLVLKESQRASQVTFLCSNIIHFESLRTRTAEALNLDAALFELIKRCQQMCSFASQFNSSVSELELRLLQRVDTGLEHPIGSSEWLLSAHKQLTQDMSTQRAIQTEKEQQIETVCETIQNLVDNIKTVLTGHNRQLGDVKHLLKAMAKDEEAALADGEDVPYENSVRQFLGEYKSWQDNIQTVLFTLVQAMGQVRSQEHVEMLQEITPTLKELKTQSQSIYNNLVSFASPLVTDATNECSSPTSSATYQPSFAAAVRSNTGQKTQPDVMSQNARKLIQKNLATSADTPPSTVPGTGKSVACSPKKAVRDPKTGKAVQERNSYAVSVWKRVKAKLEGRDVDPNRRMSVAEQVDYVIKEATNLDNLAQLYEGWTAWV

As for `CS(=O)(=O)O.Cc1nccc2[nH]c(=O)c(-c3nc4c(N5CC[C@H]5C)nc(Cl)cc4[nH]3)cc12` [Example 123, 3-{6-chloro-4-[(2R)-2-methylazetidin-1-yl]-1H-imidazo[4,5-c]pyridin-2-yl}-5-methyl-1,6-naphthyridin-2(1H)-one methanesulfonate], at human SMG1 enzyme, the IC50 was determined as 1.6 nM. Moreover, in experiment [1], the EC50 came to 46 nM. The compound further displayed a Snhg1 fold change in experiment [2] (30 mg/kg oral) of 4.4.

As to `CS(=O)(=O)O.Cc1nccc2[nH]c(=O)c(-c3nc4c(N5CCOC[C@H]5C)nc(Cl)cc4[nH]3)cc12` [Example 124, 3-{6-chloro-4-[(3R)-3-methylmorpholin-4-yl]-1H-imidazo[4,5-c]pyridin-2-yl}-5-methyl-1,6-naphthyridin-2(1H)-one methanesulfonate], the IC50 at human SMG1 enzyme amounted to 3.2 nM. Also, the concentration giving a half-maximal response (EC50) in experiment [1] is 55 nM. In addition, the Snhg1 fold change in experiment [2] (10 mg/kg oral) is 4.6.

Turning to `CS(=O)(=O)O.Cc1nccc2[nH]c(=O)c(-c3nc4c(C5CCOCC5)nc(Cl)cc4[nH]3)cc12` [Example 125, 3-[6-chloro-4-(tetrahydro-2H-pyran-4-yl)-1H-imidazo[4,5-c]pyridin-2-yl]-5-methyl-1,6-naphthyridin-2(1H)-one methanesulfonate], the 50% inhibitory concentration (IC50) at human SMG1 enzyme amounted to 0.72 nM. The EC50 in experiment [1] came out at 23 nM. Moreover, in experiment [2] (10 mg/kg oral), the Snhg1 fold change is on record as 6.5.

Consider `CS(=O)(=O)O.O=c1[nH]c2ccncc2cc1-c1nc2c(C3CCOCC3)nc(Cl)cc2[nH]1` [Example 126, 3-[6-chloro-4-(tetrahydro-2H-pyran-4-yl)-1H-imidazo[4,5-c]pyridin-2-yl]-1,6-naphthyridin-2(1H)-one methanesulfonate], for which, on human SMG1 enzyme, the IC50 stood at 1.6 nM. The EC50 in experiment [1] was 29 nM. In experiment [2] (30 mg/kg oral), this compound yielded a Snhg1 fold change of 4.1.

Consider `CCc1nccc2[nH]c(=O)c(-c3nc4c(C5CCOCC5)nc(Cl)cc4[nH]3)cc12.CS(=O)(=O)O` [Example 127, 3-[6-chloro-4-(tetrahydro-2H-pyran-4-yl)-1H-imidazo[4,5-c]pyridin-2-yl]-5-ethyl-1,6-naphthyridin-2(1H)-one methanesulfonate], for which, at human SMG1 enzyme, the IC50 was 0.96 nM. The EC50 in experiment [1] was 34 nM. In experiment [2] (10 mg/kg oral), the Snhg1 fold change stood at 6.2.

For the compound `CC1(c2nccc3[nH]c(=O)c(-c4nc5c(C6CCOCC6)nc(Cl)cc5[nH]4)cc23)CC1` [Example 128, 3-[6-chloro-4-(tetrahydro-2H-pyran-4-yl)-1H-imidazo[4,5,c]pyridin-2-yl]-5-(1-methylcyclopropyl)-1,6-naphthyridin-2(1H)-one methanesulfonate], at human SMG1 enzyme, the IC50 stood at 4.5 nM. Further, the EC50 in experiment [1] came out at 56 nM. The same compound had a Snhg1 fold change in experiment [2] (30 mg/kg oral) of 6.2.

As for `CS(=O)(=O)O.Cc1ccccc1-c1nccc2[nH]c(=O)c(-c3nc4c(NCC(F)(F)F)nc(Cl)cc4[nH]3)cc12` [Example 129, 3-{6-chloro-4-[(2,2,2-trifluoroethyl)amino]-1H-imidazo[4,5-c]pyridin-2-yl}-5-(2-methylphenyl)-1,6-naphthyridin-2(1H)-one methanesulfonate], at human SMG1 enzyme, the half-maximal inhibitory concentration (IC50) stood at 3.5 nM. The EC50 in experiment [1] turned out to be 17 nM. For the same compound, the Snhg1 fold change in experiment [2] (10 mg/kg oral) worked out at 9.0.

Take `COc1ccc(F)cc1-c1nccc2[nH]c(=O)c(-c3nc4c(C)nc(Cl)cc4[nH]3)cc12.CS(=O)(=O)O` [Example 131, 3-(6-chloro-4-methyl-1H-imidazo[4,5-c]pyridin-2-yl)-5-(5-fluoro-2-methoxyphenyl)-1,6-naphthyridin-2(1H)-one methanesulfonate]: at human SMG1 enzyme, the 50% inhibitory concentration (IC50) came to 0.78 nM. Besides, the half-maximal effective concentration (EC50) in experiment [1] is 22 nM. The compound further gave a Snhg1 fold change in experiment [2] (10 mg/kg oral) of 7.1.

Take `CS(=O)(=O)O.Cc1nc(Cl)cc2[nH]c(-c3cc4c(-c5ccccc5OC(F)F)nccc4[nH]c3=O)nc12` [Example 132, 3-(6-chloro-4-methyl-1H-imidazo[4,5-c]pyridin-2-yl)-5-[2-(difluoromethoxy)phenyl]-1,6-naphthyridin-2(1H)-one methanesulfonate]: on human SMG1 enzyme, the IC50 was determined as 3.5 nM. Besides, the 50% effective concentration (EC50) in experiment [1] is 50 nM. In experiment [2] (10 mg/kg oral), this compound gave a Snhg1 fold change of 7.4.

As for `CS(=O)(=O)O.[2H]C([2H])([2H])Oc1ccccc1-c1nccc2[nH]c(=O)c(-c3nc4cnc(Cl)cc4[nH]3)cc12` [Example 133, 3-(6-chloro-1H-imidazo[4,5-c]pyridin-2-yl)-5-{2-[(2H3)methyloxy]phenyl}-1,6-naphthyridin-2(1H)-one methanesulfonate], at human SMG1 enzyme, the IC50 stood at 2.4 nM. Besides, the half-maximal effective concentration (EC50) in experiment [1] is 44 nM. The Snhg1 fold change in experiment [2] (12.5 mg/kg oral) was found to be 8.2.

As to `CS(=O)(=O)O.[2H]C([2H])([2H])Oc1cccc(F)c1-c1nccc2[nH]c(=O)c(-c3nc4cnc(Cl)cc4[nH]3)cc12` [Example 135, 3-(6-chloro-1H-imidazo[4,5-c]pyridin-2-yl)-5-{2-fluoro-6-[(2H3)methyloxy]phenyl}-1,6-naphthyridin-2(1H)-one methanesulfonate], the concentration for half-maximal inhibition (IC50) on human SMG1 enzyme amounted to 2.2 nM. The EC50 in experiment [1] worked out at 39 nM. The Snhg1 fold change in experiment [2] (12.5 mg/kg oral) is on record as 10.

Turning to `CS(=O)(=O)O.[2H]C([2H])([2H])Oc1cccc(F)c1-c1nccc2[nH]c(=O)c(-c3nc4c(CC)nc(Cl)cc4[nH]3)cc12` [Example 136, 3-(6-chloro-4-ethyl-1H-imidazo[4,5-c]pyridin-2-yl)-5-{2-fluoro-6-[(2H3)methyloxy]phenyl}-1,6-naphthyridin-2(1H)-one methanesulfonate], the IC50 at human SMG1 enzyme turned out to be 0.63 nM. The 50% effective concentration (EC50) in experiment [1] came out at 5.3 nM. This compound yielded a Snhg1 fold change in experiment [2] (10 mg/kg oral) of 4.8.

With `CCc1nc(Cl)cc2[nH]c(-c3cc4c(-c5c(O)cccc5F)nccc4[nH]c3=O)nc12.CS(=O)(=O)O` [Example 137, 3-(6-chloro-4-ethyl-1H-imidazo[4,5-c]pyridin-2-yl)-5-(2-fluoro-6-hydroxyphenyl)-1,6-naphthyridin-2(1H)-one methanesulfonate], at human SMG1 enzyme, the IC50 was determined as 1.2 nM. In addition, the half-maximal effective concentration (EC50) in experiment [1] came out at 10 nM. The compound further returned a Snhg1 fold change in experiment [2] (25 mg/kg oral) of 5.1.

As to `CCc1nc(Cl)cc2[nH]c(-c3cc4c(-c5cnc(C6CC6)cc5OC)nccc4[nH]c3=O)nc12.CS(=O)(=O)O` [Example 138, 3-(6-chloro-4-ethyl-1H-imidazo[4,5-c]pyridin-2-yl)-5-(6-cyclopropyl-4-methoxypyridin-3-yl)-1,6-naphthyridin-2(1H)-one methanesulfonate], the half-inhibitory concentration (IC50) at human SMG1 enzyme turned out to be 0.36 nM. In addition, the EC50 in experiment [1] amounted to 1.8 nM. Also, the Snhg1 fold change in experiment [2] (10 mg/kg oral) was 12.

Take `CCc1cc(OC)c(-c2nccc3[nH]c(=O)c(-c4nc5c(CC)nc(Cl)cc5[nH]4)cc23)cn1.CS(=O)(=O)O` [Example 139, 3-(6-chloro-4-ethyl-1H-imidazo[4,5-c]pyridin-2-yl)-5-(6-ethyl-4-methoxypyridin-3-yl)-1,6-naphthyridin-2(1H)-one methanesulfonate]: the IC50 at human SMG1 enzyme came out at 0.31 nM. The EC50 in experiment [1] amounted to 4.3 nM. This compound had a Snhg1 fold change in experiment [2] (10 mg/kg oral) of 7.5.

For `COc1cc(C2CC2)ncc1-c1nccc2[nH]c(=O)c(-c3nc4c(C)nc(Cl)cc4[nH]3)cc12.CS(=O)(=O)O` [Example 140, 3-(6-chloro-4-methyl-1H-imidazo[4,5-c]pyridin-2-yl)-5-(6-cyclopropyl-4-methoxypyridin-3-yl)-1,6-naphthyridin-2(1H)-one methanesulfonate], the IC50 at human SMG1 enzyme was 1 nM. Moreover, the EC50 in experiment [1] stood at 8.8 nM. For the same compound, in experiment [2] (10 mg/kg oral), the Snhg1 fold change amounted to 6.3.

Turning to `CCc1nc(Cl)cc2[nH]c(-c3cc4c(-c5cnc(C(F)F)cc5OC)nccc4[nH]c3=O)nc12.CS(=O)(=O)O` [Example 141, 3-(6-chloro-4-ethyl-1H-imidazo[4,5-c]pyridin-2-yl)-5-[6-(difluoromethyl)-4-methoxypyridin-3-yl]-1,6-naphthyridin-2(1H)-one methanesulfonate], the IC50 on human SMG1 enzyme was 0.37 nM. Moreover, the EC50 in experiment [1] is 3.1 nM. The Snhg1 fold change in experiment [2] (10 mg/kg oral) was 8.4.

These data come from US20260109715A1, “IMIDAZOPYRIDINE DERIVATIVES WITH BICYCLIC STRUCTURE” (PUBLIC UNIVERSITY CORPORATION YOKOHAMA CITY UNIVERSITY, priority 2022, published 2026).
